Read-outs that look alike come from different tables or passages of the source.
Columns and labels:
Jurkat T cells = experiment: SDF-1α induced migration of parental Jurkat T cells; assay type: cell-based, human
Description: Results: The level of the SDF-1α, receptor CXCR4 was similar on Jurkat-D3B and the parental Jurkat T cell line. Furthermore, the Jurkat-D3B cells responded to SDF-1α in a Transwell® chemotaxis assay (see Example 1 for the methodology employed) over a similar concentration range to the parental cell line.
Jurkat T cells and Jurkat-D3B cells were induced to migrate in response to 100 ng/ml SDF-1α (R&D systems; the concentration of SDF-1α which induced maximal cell migration in both lines). The BSCI BN83250 was then added at various concentrations between 0 nM and 1000 nM (each in triplicate) to both the upper and lower compartments (at the same concentration in each compartment, so as not to create a gradient of BSCI concentration). DMSO (1% final concentration) was used as the vehicle, and was present in all wells at equal concentration.

Panc-2H4 cells = experiment: Human Panc-2H4 insulin suppression assay; assay type: cell-based
Source text: Two different assays for “classical” sstr2 functions were adopted: (1) cultured foetal rat pituitary cells secreted growth hormone which is inhibited by sstr2 agonists in a dose-dependent fashion and (2) selected glucose-sensitive sub-clones of the human Panc-1 cell line secrete insulin which is inhibited by sstr2 agonists in a dose-dependent fashion.
Glucose-sensitive sub-clones of the human Panc-1, a cell line derived from a pleiomorphic epithelioid carcinoma of the exocrine pancreas, were obtained essentially as described by Hamil et al. (2008) Biomed. Sci. Instrum. 44:441-6. Briefly, Panc-1 cells were subcultured in 24 well plates, and the medium was supplemented with an additional 5% glucose. […] The resulting sub-lines were then tested for glucose sensitivity by preparing wells of a 96-well plate (5×10^4 cells per well) which were then exposed to cultured medium containing a range of glucose concentrations (low glucose DMEM, DMEM, DMEM+1% glucose, DMEM+2.5% glucose and DMEM+5% glucose). After 24 hrs incubation, the conditioned medium was collected and assayed for insulin secretion by ELISA (Linco; cat# EZHI-14K) in accordance with the manufacturer's instructions.
Further 96 well plates were prepared using Panc-2H4 (5×10^4 cells per well) in DMEM. After 24 hrs, the medium was switched to DMEM+5% glucose containing various test agents at various concentrations (triplicate wells per condition). After a further 24 hrs, the conditioned medium was harvested and the concentration of insulin was determined by ELISA as described above.
Results were reported as the mean±SD, expressed as the fold change from cells in the presence of vehicle only.

sstr2 = target: T1, sstr2 (Homo sapiens, UniProt P30874); experiment: Equilibrium binding of [3H]-BN83250 to THP-1 cells; settings: competition with [3H]-BN83250
T1 construct: with 1×10^6 THP-1 cells in Gey's Balanced Salt Solution; endogenous in cells; host or cells: THP-1 cells (whole cells, 4° C.)
T1 sequence (P30874 whole entry): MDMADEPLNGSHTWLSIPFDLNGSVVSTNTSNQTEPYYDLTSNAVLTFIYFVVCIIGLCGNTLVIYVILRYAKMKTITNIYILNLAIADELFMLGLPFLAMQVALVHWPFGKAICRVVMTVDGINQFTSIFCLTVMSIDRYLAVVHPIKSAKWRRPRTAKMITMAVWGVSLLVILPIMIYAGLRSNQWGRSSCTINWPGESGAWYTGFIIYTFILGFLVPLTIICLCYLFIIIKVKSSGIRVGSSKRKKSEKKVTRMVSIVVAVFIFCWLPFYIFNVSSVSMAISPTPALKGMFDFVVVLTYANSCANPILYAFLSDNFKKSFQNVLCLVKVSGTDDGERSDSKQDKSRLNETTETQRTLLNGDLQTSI
Description: Methods: [^3H]-BN83250 was synthesesized from (S,E)-3-(2′,2′-dimethyldodec-4′-enoylamino)-caprolactam by catalytic hydrogenation using tritium gas over a palladium catalyst (CRB Ltd, Cleveland, UK), yielding the tritiated product at a concentration of […] in ethanol with a specific activity of 220 Ci/mmol. The (S,E)-3-(2′,2′-dimethyldodec-4′-enoylamino)-caprolactam was prepared as follows: (S,S)-3-amino-caprolactam hydro-pyrrolidine-5-carboxylate (10 mmol) and Na2CO3 (30 mmol) in water (30 ml) were added to a solution of 2,2-dimethyl-dodec-4-enoyl chloride (10 mmol) in dichloromethane (30 ml) at ambient temperature and the reaction was stirred for 12 hours. The organic layer was then separated and the aqueous phase was extracted with additional dichloromethane (2×25 ml). The combined organic layers were dried over Na2CO3 and reduced in vacuo. The residue was purified by silica column chromatography (1:1 EtOAc:hexanes to EtOAc) to give […]-3-(2′,2′-dimethyl-dodec-4′-enoyl)amino-caprolactam as a colourless oil (2.12 g, 63%). The radiolabelled compound was stored in the dark at 4° C. until required. Prior to use the specific activity was adjusted by addition of unlabelled BN83250.
For the analysis of binding, individual reactions were set up (in triplicate for each condition), with 1×10^6 THP-1 cells in Gey's Balanced Salt Solution, 10 nM [^3H]-BN83250 (at 50 Ci/mmol) and various concentrations of (S)-3(2′2′-dimethylpropionoylamino)-tetrahydropyridin-2-one (10 pM to 10 μM). Excess (100 μM) unlabelled BN83250 was used to determine the level of non-specific binding. After 2 hours at 4° C. (conditions previously shown to achieve equilibrium binding, and which prevent uptake of the radioligand that would result in an over-estimate of binding) excess label was washed away by centrifugation (3 washes with 5 ml of Gey's Balanced Salt Solution) and the bound radioactivity was determined by scintillation counting of the solubilised cell pellet.

Row | Molecule | Inhibition of SDF-1α induced migration of Jurkat T cells, in words (Jurkat T cells) | EC50 (Panc-2H4 cells; Table 3, read-out: Human Panc-2H4 insulin suppression assay ED50) [µM] | Human Panc-2H4 insulin suppression assay Max effect (Panc-2H4 cells; Table 3, suppression compared to vehicle) [%] | Panc-2H4 insulin suppression assay (“classical” target) Max Effect (Panc-2H4 cells; Table 5) [%] | EC50 (Panc-2H4 cells; Table 5, read-out: Panc-2H4 insulin suppression assay (“classical” target) ED50) [µM] | Hill Slope (sstr2) | EC50 (Panc-2H4 cells; Homo sapiens, Table 3, read-out: Human Panc-2H4 insulin suppression assay ED50) [µM]
1 | (S)-3-(2′,2′-dimethyldodecanoyl)amino-caprolactam [BN83250] | little or no effect | 1 | 28 | 28 | 1 |  | 
2 | CC(C)(C)C(=O)N[C@H]1CCCNC1=O [Valerolactam, (S)-3-(2′,2′-dimethylpropionoylamino)-tetrahydropyridin-2-one] |  |  |  |  |  | approximately −1.0 | > 1
